This is an account of results in patent publication KR20180060184A, “Ccsp-2와 특이적으로 결합하는 펩타이드 및 이의 용도” (재단법인 아산사회복지재단, priority 2016, dated 2018).

Residues, ends and D or L forms follow the SMILES beside them.

As a reminder, the Kd is a measure of binding affinity in units of concentration.

For one assay, the target named is T1, CCSP-2 (Homo sapiens, UniProt Q5GFL6).
T1 construct: His tag; made in house; host or cells: CCSP-2-overexpressing HeLa cell line (provided by Case Western Reserve University); the secreted protein was captured from the conditioned medium on Ni-NTA agarose
T1 sequence (Q5GFL6 24-755): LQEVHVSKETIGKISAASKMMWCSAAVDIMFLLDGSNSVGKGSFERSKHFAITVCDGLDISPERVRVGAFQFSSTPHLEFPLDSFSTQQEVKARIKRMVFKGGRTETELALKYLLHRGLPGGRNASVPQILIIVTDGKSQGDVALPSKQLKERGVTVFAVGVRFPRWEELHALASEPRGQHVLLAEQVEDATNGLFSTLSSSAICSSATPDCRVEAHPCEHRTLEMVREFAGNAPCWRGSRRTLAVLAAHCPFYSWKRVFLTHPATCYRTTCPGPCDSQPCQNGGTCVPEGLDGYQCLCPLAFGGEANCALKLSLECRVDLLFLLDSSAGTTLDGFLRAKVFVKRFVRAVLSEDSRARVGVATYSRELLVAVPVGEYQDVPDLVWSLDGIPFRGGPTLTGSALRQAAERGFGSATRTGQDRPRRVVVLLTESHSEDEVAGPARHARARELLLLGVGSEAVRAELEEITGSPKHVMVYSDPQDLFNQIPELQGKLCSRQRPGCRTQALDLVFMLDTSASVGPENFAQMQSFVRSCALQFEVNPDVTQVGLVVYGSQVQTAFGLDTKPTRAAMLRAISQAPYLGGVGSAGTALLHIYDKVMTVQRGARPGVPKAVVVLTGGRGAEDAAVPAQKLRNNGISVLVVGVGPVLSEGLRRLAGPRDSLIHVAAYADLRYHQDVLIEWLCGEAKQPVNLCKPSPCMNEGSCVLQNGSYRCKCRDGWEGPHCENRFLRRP
Briefly: Phage display biopanning on purified CCSP-2 and sequencing of selected clones. The assay is classed as binding. To be noted: after 4 rounds of panning on CCSP-2.
Consider NTGSPYE [MSJ1], for which the “빈도 (frequency among the 56 sequences, percent)” value was determined as 16.1%.

WWNPLRP [MSJ10]: the “빈도 (frequency among the 56 sequences, percent)” value turned out to be 12.5%.

The target in another assay is T2, CCSP-2 단백질 (Homo sapiens, UniProt Q5GFL6).
T2 sequence (Q5GFL6 24-755): T1 sequence (Q5GFL6 24-755)
Briefly: Fluorescence correlation spectroscopy (FCS), dissociation constant with CCSP-2 protein. To be noted: (peptide)-(GGGSK)-FITC-NH2 conjugate; CCSP-2 0-300 uM; Fig. 5; read-out: 해리상수 (Dissociation constant, Kd). The class given is binding.
Turning to `N=C(N)NCCC[C@H](NC(=O)[C@H](Cc1ccccc1)NC(=O)[C@H](CCCCN)NC(=O)[C@H](CO)NC(=O)[C@H](Cc1ccccc1)NC(=O)[C@@H](N)CCC(=O)O)C(=O)N[C@@H](CO)C(=O)O` [MSJ2, EFSKFRS] (H-EFSKFRS-OH), the equilibrium dissociation constant (Kd) was determined as 55 µM.

Consider `CSCC[C@H](N)C(=O)N[C@@H](CO)C(=O)N[C@H](C(=O)NCC(=O)N[C@@H](CC(C)C)C(=O)N[C@@H](CO)C(=O)N[C@@H](CO)C(=O)O)[C@@H](C)O` [MSJ3, MSTGLSS] (H-MSTGLSS-OH), for which the dissociation constant Kd worked out at 25 µM.

Turning to `N=C(N)NCCC[C@H](NC(=O)[C@H](CC(N)=O)NC(=O)[C@H](Cc1ccccc1)NC(=O)[C@H](CO)NC(=O)[C@H](CO)NC(=O)[C@H](Cc1ccc(O)cc1)NC(=O)CN)C(=O)O` [MSJ11, GYSSFNR] (H-GYSSFNR-OH), the dissociation constant (Kd) came to 61 µM.

For `CC(C)C[C@H](NC(=O)[C@H](CCCCN)NC(=O)[C@@H](N)CC(C)C)C(=O)NCC(=O)N[C@@H](CCC(=O)O)C(=O)N[C@@H](CCCCN)C(=O)N[C@@H](Cc1c[nH]c2ccccc12)C(=O)O` [MSJ6, LKLGEKW] (H-LKLGEKW-OH), the dissociation constant (Kd) is 62 µM.
